Values joined by “and” are separate entries in the source; they are usually repeats but may differ in a detail not shown here. Equal entries are not always repeated.
Tests used:
[1] = tested on: Caspase-9 in MCF-7 breast cancer cells; test: Caspase-9 assay; assay type: cell-based, human; conditions: for Caspase-9 Fold change: MCF-7, vs untreated control; for Caspase-9 Conc: MCF-7 breast cancer cells
[2] = tested on: Cytochrome C in MCF-7 human breast cancer cell line; test: Cytochrome C assay; assay type: cell-based; conditions: for Cytochrome C Fold change: MCF-7, vs untreated control; for Cytochrome C Conc: MCF-7 breast cancer cells
A549/ATCC = test: NCI one-dose SRB anti-proliferative screen; assay type: cell-based; conditions: Homo sapiens; A549/ATCC, Non-Small Cell Lung Cancer; NCI one dose; read-out: Cell growth inhibition %
Method in brief: (§1)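 SRB-based colorimetric growth readout; compounds dosed once at 10 µM.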

SK-MEL-2 = test: NCI one-dose SRB anti-proliferative screen; assay type: cell-based; conditions: Homo sapiens; SK-MEL-2, Melanoma; NCI one dose; read-out: Cell growth inhibition %
Method in brief: as §1

KM12 = test: NCI one-dose SRB anti-proliferative screen; assay type: cell-based; conditions: Homo sapiens; KM12, Colon cancer; NCI one dose; read-out: Cell growth inhibition %
Method in brief: as §1

MDA-MB-231/ATCC = test: NCI one-dose SRB anti-proliferative screen; assay type: cell-based; conditions: Homo sapiens; MDA-MB-231/ATCC, Breast cancer; NCI one dose; read-out: Cell growth inhibition %
Method in brief: as §1

A498 = test: NCI one-dose SRB anti-proliferative screen; assay type: cell-based; conditions: Homo sapiens; A498, Renal cancer; NCI one dose; read-out: Cell growth inhibition %
Method in brief: as §1

U251 = test: NCI one-dose SRB anti-proliferative screen; assay type: cell-based; conditions: Homo sapiens, U-251; U251, CNS Cancer; NCI one dose; read-out: Cell growth inhibition %
Method in brief: as §1

HS 578T = test: NCI one-dose SRB anti-proliferative screen; assay type: cell-based; conditions: Homo sapiens; HS 578T, Breast cancer; NCI one dose; read-out: Cell growth inhibition %
Method in brief: as §1

DU-145 = test: NCI one-dose SRB anti-proliferative screen; assay type: cell-based; conditions: Homo sapiens; DU-145, Prostate Cancer; NCI one dose; read-out: Cell growth inhibition %
Method in brief: as §1

SF-268 = test: NCI one-dose SRB anti-proliferative screen; assay type: cell-based; conditions: Homo sapiens; SF-268, CNS Cancer; NCI one dose; read-out: Cell growth inhibition %
Method in brief: as §1

CAKI-1 = test: NCI one-dose SRB anti-proliferative screen; assay type: cell-based; conditions: Homo sapiens; CAKI-1, Renal cancer; NCI one dose; read-out: Cell growth inhibition %
Method in brief: as §1

HOP-92 = test: NCI one-dose SRB anti-proliferative screen; assay type: cell-based; conditions: Homo sapiens; HOP-92, Non-Small Cell Lung Cancer; NCI one dose; read-out: Cell growth inhibition %
Method in brief: as §1

SF-295 = test: NCI one-dose SRB anti-proliferative screen; assay type: cell-based; conditions: Homo sapiens; SF-295, CNS Cancer; NCI one dose; read-out: Cell growth inhibition %
Method in brief: as §1

OVCAR-3 = test: NCI one-dose SRB anti-proliferative screen; assay type: cell-based; conditions: Homo sapiens; OVCAR-3, Ovarian Cancer; NCI one dose; read-out: Cell growth inhibition %
Method in brief: as §1

IGROV1 = test: NCI one-dose SRB anti-proliferative screen; assay type: cell-based; conditions: Homo sapiens, IGROV-1; IGROV1, Ovarian Cancer; NCI one dose; read-out: Cell growth inhibition %
Method in brief: as §1

HCT-15 = test: NCI one-dose SRB anti-proliferative screen; assay type: cell-based; conditions: Homo sapiens; HCT-15, Colon cancer; NCI one dose; read-out: Cell growth inhibition %
Method in brief: as §1

SNB-75 = test: NCI one-dose SRB anti-proliferative screen; assay type: cell-based; conditions: Homo sapiens; SNB-75, CNS Cancer; NCI one dose; read-out: Cell growth inhibition %
Method in brief: as §1

MCF7 = test: NCI one-dose SRB anti-proliferative screen; assay type: cell-based; conditions: Homo sapiens; MCF7, Breast cancer; NCI one dose; read-out: Cell growth inhibition %
Method in brief: as §1

NCI-H23 = test: NCI one-dose SRB anti-proliferative screen; assay type: cell-based; conditions: Homo sapiens; NCI-H23, Non-Small Cell Lung Cancer; NCI one dose; read-out: Cell growth inhibition %
Method in brief: as §1

786-0 = test: NCI one-dose SRB anti-proliferative screen; assay type: cell-based; conditions: Homo sapiens; 786-0, Renal cancer; NCI one dose; read-out: Cell growth inhibition %
Method in brief: as §1

NCI-H322M = test: NCI one-dose SRB anti-proliferative screen; assay type: cell-based; conditions: Homo sapiens; NCI-H322M, Non-Small Cell Lung Cancer; NCI one dose; read-out: Cell growth inhibition %
Method in brief: as §1

EGFR = molecular target: T1, EGFR (Homo sapiens, UniProt P00533); test: EGFR-TK inhibitory assay; assay type: biochemical; conditions: for IC50: read-out: EGFR Inhibition IC50 ± SEM
T1 construct: EGFR cytoplasmic domain (EGFR-CD, amino acids 645–1186); His6 (N); made in house; host or cells: Sf-9 insect cells (baculovirus; pBlueBacHis2B / pFASTBacHTc)

[3] = tested on: Caspase-3 in MCF-7 breast cancer cells; test: Caspase-3 assay; conditions: for Caspase-3 Fold change: MCF-7, vs untreated control; for Caspase-3 Conc: MCF-7 breast cancer cells
Method: All reagents were allowed to reach room temperature before use. All liquid reagents were gently mixed before use. The number of 8-well strips needed for the assay was determined. These were inserted into the frame(s) for current use. A total of 100 µL of the Standard Diluent Buffer was added to the zero standard wells. Well(s) reserved for chromogen blank were left empty. A total of 100 µL of standards and controls or diluted samples was added to the appropriate microtiter wells. The sample dilution chosen was optimized for each experimental system. The side of the plate was gently tapped on to
mix. Wells were covered with a plate cover and incubated for 2 h at room temperature. The solution was thoroughly aspirated or decanted from the wells and the liquid was discarded; wells were washed four times. […] The side of the plate was gently tapped on to mix. The plate was covered with a plate cover and incubated for 1h at room temperature. The solution was thoroughly aspirated or decanted from wells and the liquid was discarded; wells were washed four times. A total of 100 µL Anti-Rabbit IgG HRP Working Solution was added to each well except the chromogen blank(s). The working dilution was prepared as described in Preparing IgG HRP. Wells were covered with the plate cover and incubated for 30 min at room temperature. The solution was thoroughly aspirated or decanted from the wells and the liquid was discarded. Wells were washed four times. A total of 100 µL of Stabilized Chromogen was added to each well. The liquid in the wells began to turn blue. It was incubated for 30 min at room temperature and in the dark. The incubation time for chromogen substrate was determined by the microtiter plate reader used. Many plate readers have the capacity to record a maximum optical density (O.D.) of 2.0. The O.D. values were monitored, and the substrate reaction was stopped before the O.D. of the positive wells exceeds the limits of the instrument. The O.D. values at 450 nm could only be read after the Stop Solution had been added to each well. A total of 100 µL of Stop Solution was added to each well. The side of the plate was gently tapped to mix. The solution in the wells changed from blue to yellow. The absorbance of each well was read at 450 nm, having blanked the plate reader against a chromogen blank composed of 100 µL each of Stabilized Chromogen and Stop Solution. The plate was read within 2 h after adding the Stop Solution. A curve fitting software was used to generate the standard curve.
The concentrations for unknown samples and controls from the standard curve were read. Value(s) obtained for sample(s) by the appropriate dilution factor were multiplied to correct for the dilution in step 3.

BRAF^V600E = test: biochemical
Method: To further denature the protein, heat (70° C) was applied for 5 min. […] 10 µL of each reaction was loaded into the precast plates and electrophoresis was allowed to proceed. After completion of electrophoresis, the front part of the precast gel plate (holding hot ATP) was cut and afterwards cast-off. The dried gel was developed using a phosphor screen.

BAX in MCF-7 = test: BAX activation assay; conditions: for BAX Conc: MCF-7; for BAX Fold change: MCF-7, vs untreated control
Method: All reagents were brought to room temperature for at least 30 min before opening (except the human BAX-α Standard). Human BAX-α Standard solution was not be left at room temperature for more than 10 min. Duplicates of all standards, controls, and samples were run. The Assay Layout Sheet was used to determine the number of wells to be used, and any remaining wells were put with the desiccant back into the pouch, and the ziplock was sealed. Unused wells were stored at 4 ◦C. A total of 100 µL of Assay Buffer was pipetted into the S0 (0 pg/mL standard) wells. A total of 100 µL of Standards #1 through #6 was pipetted into the appropriate wells. A total of 100 µL of the samples was pipetted into the appropriate wells. The plate was gently tapped to mix the contents. The plate was sealed and incubated at room temperature on a plate shaker for 1 h at ~500 rpm. The contents of the wells were emptied and washed by adding 400 µL of wash solution to every well. The wash was repeated four more times for a total of five washes. After the final wash, the wells were emptied or aspirated and firmly the plate on a lint-free paper towel was tapped to remove any remaining wash buffer. A total of 100 µL of yellow antibody was pipetted into each well, except the Blank. The plate was sealed and incubated at room temperature on a plate shaker for 1 h at ~500 rpm. The contents of the wells were emptied and washed by adding 400 µL of wash solution to every well. The wash was repeated four more times for a total of five washes. After the final wash, the wells were emptied or aspirated, and the plate was firmly tapped on a lint-free paper towel to remove any remaining wash buffer. A total of 100 µL of blue Conjugate was added to each well, except the Blank. The plate was sealed and incubated at room temperature on a plate shaker for 30 min at ~500 rpm. The contents of the wells were emptied and washed by adding 400 µL of wash solution to every well. The wash was repeated four more times for a total of five washes. After the final wash, the wells were emptied or aspirated and the plate was firmly tapped on a lint-free paper towel to remove any remaining wash buffer. A total of 100 µL of Substrate Solution was pipetted into each well. It was incubated for 30 min at room temperature on a plate shaker at ~500 rpm. A total of 100 µL Stop Solution was pipetted into to each well. The plate reader was blanked against the Blank wells, and the optical density was read at 450 nm. The average net optical density (OD) bound for each standard and sample was calculated by subtracting the average Blank OD from the average OD for each standard and sample. Using linear graph paper, the Average Net OD for each standard versus BAX concentration in each standard were plotted. A straight line was approximated through the points. The concentration of BAX in the unknowns could be determined by interpolation.

[4] = tested on: Caspase-8 in MCF-7 breast cancer cells; test: Caspase-8 assay; assay type: cell-based, human; conditions: for Caspase-8 Fold change: MCF-7, vs untreated control; for Caspase-8 Conc: MCF-7 breast cancer cells
Bcl-2 in MCF-7 = test: Bcl-2 inhibition assay; conditions: for Bcl-2 Conc: MCF-7; for Bcl-2 Fold reduction: MCF-7, vs untreated control
Method: All reagents were thoroughly mixed without foaming before use. The microwells were washed twice with approximately 300 µL Wash Buffer per well with the thorough aspiration of microwell contents between washes. Care was taken not to scratch the surface of the microwells. After the last wash, the wells were emptied and microwell strips were tapped on an absorbent pad or paper towel to remove excess Wash Buffer. The microwell strips were used immediately after washing or placed upside down on a wet absorbent paper for not longer than 15 min. Wells were not allowed to dry. A total of 100 µL of Sample Diluent was added in duplicate to all standard wells and the blank wells. Standard (1:2 dilution) in duplicate was prepared ranging from 32 to 0.5 ng/mL. A total of 100 µL of Sample Diluent, in duplicate, was added to the blank wells. A total of 80 µL of Sample Diluent, in duplicate, was added to the sample wells. A total of 20 µL of each sample, in duplicate, was added to the designated wells. A total of 50 µL of diluted biotin was added, conjugated to all wells, including the blank wells. It was covered with a plate cover and incubated at room temperature on a microplate shaker at 100 rpm for 2 h. The plate cover was removed and the wells were emptied. Microwell strips were washed times as described in Step 2. A total of 100 µL of diluted Streptavidin-HRP was added to all wells, including the blank wells. It was covered with a plate cover and incubated at room temperature on a microplate shaker at 100 rpm for 1 h. The plate cover was removed and the wells were emptied. Microwell strips were washed three times, as described in Step 2. A total of 100 µL of mixed TMB Substrate Solution was pipetted into all wells, including the blanks. The microwell strips were incubated at room temperature (18 ◦C to 25 ◦C) for about 15 min, on a rotator set at 100 rpm. Direct exposure to intense light was avoided. The point at which the substrate reaction is stopped was determined by the ELISA reader. Many ELISA readers record absorbance only up to 2.0 O.D. Therefore, the color development within individual microwells was watched by the person running the assay, and the substrate reaction was stopped before positive wells were no longer properly detectable. The enzyme reaction was stopped by quickly pipetting 100 µL of Stop Solution into each well, including the blank wells. It was important that the Stop Solution was spread quickly and uniformly throughout the microwells to inactivate the enzyme completely. Results were read immediately after the Stop Solution was added or within one hour if the microwell strips were stored at 2–8 ◦C in the dark. The absorbance of each microwell was read on a spectrophotometer using 450 nm as the primary wavelength.

Sequence of BRAF^V600E (P28028 whole entry V585E): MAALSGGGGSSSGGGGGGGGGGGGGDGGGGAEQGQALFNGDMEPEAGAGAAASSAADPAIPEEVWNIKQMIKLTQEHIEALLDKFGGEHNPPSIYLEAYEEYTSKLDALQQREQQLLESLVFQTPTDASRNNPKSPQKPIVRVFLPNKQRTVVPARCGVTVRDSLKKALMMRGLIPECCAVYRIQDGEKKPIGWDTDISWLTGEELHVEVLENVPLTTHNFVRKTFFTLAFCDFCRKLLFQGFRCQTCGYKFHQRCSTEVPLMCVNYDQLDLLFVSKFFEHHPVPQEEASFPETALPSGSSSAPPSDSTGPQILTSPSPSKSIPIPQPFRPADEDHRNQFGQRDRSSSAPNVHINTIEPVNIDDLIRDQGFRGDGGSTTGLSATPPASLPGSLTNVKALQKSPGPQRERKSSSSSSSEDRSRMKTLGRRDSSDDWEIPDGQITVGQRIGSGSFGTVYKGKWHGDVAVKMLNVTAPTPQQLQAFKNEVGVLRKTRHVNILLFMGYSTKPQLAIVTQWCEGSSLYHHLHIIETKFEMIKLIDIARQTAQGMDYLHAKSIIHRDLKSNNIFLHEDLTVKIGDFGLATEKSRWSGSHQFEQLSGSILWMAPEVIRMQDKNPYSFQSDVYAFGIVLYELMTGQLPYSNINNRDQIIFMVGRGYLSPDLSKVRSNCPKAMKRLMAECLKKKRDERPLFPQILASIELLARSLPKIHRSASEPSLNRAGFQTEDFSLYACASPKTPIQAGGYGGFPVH
T1 sequence (P00533 669-1210): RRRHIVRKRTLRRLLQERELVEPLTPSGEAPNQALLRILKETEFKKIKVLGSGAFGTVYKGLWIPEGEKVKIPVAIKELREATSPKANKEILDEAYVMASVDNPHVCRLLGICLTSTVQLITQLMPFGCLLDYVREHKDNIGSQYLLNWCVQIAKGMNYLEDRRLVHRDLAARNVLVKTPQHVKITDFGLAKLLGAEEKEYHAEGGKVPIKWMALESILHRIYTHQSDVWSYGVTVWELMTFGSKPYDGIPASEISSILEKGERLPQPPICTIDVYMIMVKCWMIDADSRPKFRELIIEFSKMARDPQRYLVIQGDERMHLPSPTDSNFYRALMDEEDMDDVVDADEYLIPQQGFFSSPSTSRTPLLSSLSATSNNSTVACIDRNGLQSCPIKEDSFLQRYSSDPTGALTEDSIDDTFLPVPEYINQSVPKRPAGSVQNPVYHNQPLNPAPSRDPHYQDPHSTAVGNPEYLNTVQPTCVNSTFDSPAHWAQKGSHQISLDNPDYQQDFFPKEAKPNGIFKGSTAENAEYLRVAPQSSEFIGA

With COc1ccc(-c2nc3cc(-c4nnc(SCC(=O)Nc5ccc(C(=O)/C=C/c6ccccc6)cc5)o4)ccc3[nH]2)cc1 [Compound 7k, 2-{5-[2-(4-Methoxyphenyl)-1 H-benzo[d]imidazol-5-yl]-1,3,4-oxadiazol-2-ylthio}-N-{4-[(E)-3-phenylacryloyl]phenyl}acetamide] the “Caspase-9 Fold change” value [1] was 17 fold and 17.00 fold, the “Caspase-9 Conc” value [1] was 15.900 ng/mL and the “Cytochrome C Fold change” value [2] was 14 fold and 14.00 fold. For the same molecule, the “Cytochrome C Conc” value [2] was 0.660 ng/mL, the inhibition at 10 µM (A549/ATCC) was 5.82% and the inhibition at 10 µM (SK-MEL-2) was 0%. The inhibition at 10 µM (KM12) was 15.6%, the inhibition at 10 µM (MDA-MB-231/ATCC) was 22.5% and the inhibition at 10 µM (A498) was 19.9%. It also gave an inhibition at 10 µM (U251) of 33.2%, an inhibition at 10 µM (HS 578T) of 7.69% and an inhibition at 10 µM (DU-145) of 9.04%. The inhibition at 10 µM (SF-268) was 17.1%, the inhibition at 10 µM (CAKI-1) was 14.1% and the inhibition at 10 µM (HOP-92) was 20.3%. For the same molecule, the inhibition at 10 µM (SF-295) was 17.8%, the inhibition at 10 µM (OVCAR-3) was 0% and the inhibition at 10 µM (IGROV1) was 2.63%. For the same molecule, the inhibition at 10 µM (HCT-15) was 23.5%, the inhibition at 10 µM (SNB-75) was 33.7% and the inhibition at 10 µM (MCF7) was 50.3%. It also gave an inhibition at 10 µM (NCI-H23) of 16.9%, an inhibition at 10 µM (786-0) of 41.2% and an inhibition at 10 µM (NCI-H322M) of 0%. For the same molecule, the “fold less potent than Erlotinib against EGFR” value (EGFR) was “approximately 7 fold”, the IC50 (EGFR) was 550 ± 100 nM and the “Caspase-3 Fold change” value [3] was 8 fold and 7.60 fold. For the same molecule, the “Caspase-3 Conc” value [3] was 501.60 ± 4.00 pg/mL, the IC50 (BRAF^V600E) was 1700 ± 200 nM and the “BAX Conc” value (BAX in MCF-7) was 279.50 pg/mL and 279.500 pg/mL. For the same molecule, the “BAX Fold change” value (BAX in MCF-7) was 33 fold and 33.0 fold, the “Caspase-8 Fold change” value [4] was 10 fold and 9.90 fold and the “Caspase-8 Conc” value [4] was 1.680 ng/mL. For the same molecule, the “Bcl-2 Conc” value (Bcl-2 in MCF-7) was 0.94 ng/mL and 0.940 ng/mL and the “Bcl-2 Fold reduction” value (Bcl-2 in MCF-7) was 5.4 fold.
For COc1ccc(-c2nc3cc(-c4nnc(SCC(=O)Nc5ccc(C(=O)/C=C/c6ccc(Cl)cc6)cc5)o4)ccc3[nH]2)cc1 [Compound 7l, 2-{5-[2-(4-Methoxyphenyl)-1 H-benzo[d]imidazol-5-yl]-1,3,4-oxadiazol-2-ylthio}-N-{4-[(E)-3-(4-chlorophenyl)acryloyl]phenyl}acetamide], the “Caspase-9 Fold change” value [1] was 16 fold and 16.00 fold, the “Caspase-9 Conc” value [1] was 15.100 ng/mL and the “Cytochrome C Fold change” value [2] was 13 fold and 13.00 fold. The “Cytochrome C Conc” value [2] was 0.595 ng/mL, the inhibition at 10 µM (A549/ATCC) was 0% and the inhibition at 10 µM (SK-MEL-2) was 0%. For the same molecule, the inhibition at 10 µM (KM12) was 0%, the inhibition at 10 µM (MDA-MB-231/ATCC) was 5.19% and the inhibition at 10 µM (A498) was 15.7%. For the same molecule, the inhibition at 10 µM (U251) was 5.67%, the inhibition at 10 µM (HS 578T) was 9.4% and the inhibition at 10 µM (DU-145) was 0%. The inhibition at 10 µM (SF-268) was 5.15%, the inhibition at 10 µM (CAKI-1) was 2.8% and the inhibition at 10 µM (HOP-92) was 5.04%. The inhibition at 10 µM (SF-295) was 4.12%, the inhibition at 10 µM (OVCAR-3) was 0% and the inhibition at 10 µM (IGROV1) was 12.8%. The inhibition at 10 µM (HCT-15) was 13.9%, the inhibition at 10 µM (SNB-75) was 5.35% and the inhibition at 10 µM (MCF7) was 22%. The inhibition at 10 µM (NCI-H23) was 5.55%, the inhibition at 10 µM (786-0) was 0.91% and the inhibition at 10 µM (NCI-H322M) was 0%. The IC50 (EGFR) was 800 ± 100 nM, the “Caspase-3 Fold change” value [3] was 7.50 fold and the “Caspase-3 Conc” value [3] was 492.50 ± 4.00 pg/mL. The IC50 (BRAF^V600E) was 1900 ± 200 nM, the “BAX Conc” value (BAX in MCF-7) was 271 pg/mL and 271.600 pg/mL and the “BAX Fold change” value (BAX in MCF-7) was 32 fold and 32.0 fold. The “Caspase-8 Fold change” value [4] was 9 fold and 9.30 fold, the “Caspase-8 Conc” value [4] was 1.570 ng/mL and the “Bcl-2 Conc” value (Bcl-2 in MCF-7) was 0.97 ng/mL and 0.975 ng/mL. For the same molecule, the “Bcl-2 Fold reduction” value (Bcl-2 in MCF-7) was 5.2 fold.
With COc1ccc(/C=C/C(=O)c2ccc(NC(=O)CSc3nnc(-c4ccc5[nH]c(-c6ccc(OC)cc6)nc5c4)o3)cc2)cc1 [Compound 7m, 2-{5-[2-(4-Methoxyphenyl)-1 H-benzo[d]imidazol-5-yl]-1,3,4-oxadiazol-2-ylthio}-N-{4-[(E)-3-(4-methoxyphenyl)acryloyl]phenyl}acetamide] the “Caspase-9 Fold change” value [1] was 15.00 fold, the “Caspase-9 Conc” value [1] was 13.900 ng/mL and the “Cytochrome C Fold change” value [2] was 11 fold and 11.00 fold. The “Cytochrome C Conc” value [2] was 0.515 ng/mL, the inhibition at 10 µM (A549/ATCC) was 0% and the inhibition at 10 µM (SK-MEL-2) was 0%. The inhibition at 10 µM (KM12) was 3.51%, the inhibition at 10 µM (MDA-MB-231/ATCC) was 9.52% and the inhibition at 10 µM (A498) was 0%. For the same molecule, the inhibition at 10 µM (U251) was 15.9%, the inhibition at 10 µM (HS 578T) was 21.1% and the inhibition at 10 µM (DU-145) was 0%. For the same molecule, the inhibition at 10 µM (SF-268) was 5.02%, the inhibition at 10 µM (CAKI-1) was 6.15% and the inhibition at 10 µM (HOP-92) was 18.9%. It also gave an inhibition at 10 µM (SF-295) of 2.1%, an inhibition at 10 µM (OVCAR-3) of 3.65% and an inhibition at 10 µM (IGROV1) of 3.99%. The inhibition at 10 µM (HCT-15) was 4.27%, the inhibition at 10 µM (SNB-75) was 0% and the inhibition at 10 µM (MCF7) was 17.2%. For the same molecule, the inhibition at 10 µM (NCI-H23) was 9.57%, the inhibition at 10 µM (786-0) was 0% and the inhibition at 10 µM (NCI-H322M) was 3.18%. For the same molecule, the IC50 (EGFR) was 900 ± 100 nM, the “Caspase-3 Fold change” value [3] was 7.20 fold and the “Caspase-3 Conc” value [3] was 473.60 ± 3.50 pg/mL. For the same molecule, the IC50 (BRAF^V600E) was 2200 ± 200 nM, the “BAX Conc” value (BAX in MCF-7) was 268.200 pg/mL and the “BAX Fold change” value (BAX in MCF-7) was 31.5 fold. For the same molecule, the “Caspase-8 Fold change” value [4] was 7.90 fold, the “Caspase-8 Conc” value [4] was 1.350 ng/mL and the “Bcl-2 Conc” value (Bcl-2 in MCF-7) was 1.050 ng/mL. The “Bcl-2 Fold reduction” value (Bcl-2 in MCF-7) was 4.9 fold.

Reference: article PMC10504751, “Chalcone/1,3,4-Oxadiazole/Benzimidazole hybrids as novel anti-proliferative agents inducing apoptosis and inhibiting EGFR & BRAFV^600E” (BMC Chemistry, 2023)
